# In ChEMBL document CHEMBL5380786, “Selective Covalent Targeting of Pyruvate Kinase M2 Using Arsenous Warheads” (J Med Chem, 2023):
# Calls of active or inactive are those of the source. The calls are words filed in the database; no cut-off is given here.
# Assays:
# Pyruvate kinase PKM [1] = molecular target: T1, Pyruvate kinase PKM (Homo sapiens, UniProt P14618); assay: Binding affinity to PKM2 in human HeLa cells assessed as nuclear translocation at 0.5 uM measured for 24 hrs by DAPI staining based immunofluorescence analysis; type: cell-based
# Target sequence in this assay (P14618 2-531 limits assumed): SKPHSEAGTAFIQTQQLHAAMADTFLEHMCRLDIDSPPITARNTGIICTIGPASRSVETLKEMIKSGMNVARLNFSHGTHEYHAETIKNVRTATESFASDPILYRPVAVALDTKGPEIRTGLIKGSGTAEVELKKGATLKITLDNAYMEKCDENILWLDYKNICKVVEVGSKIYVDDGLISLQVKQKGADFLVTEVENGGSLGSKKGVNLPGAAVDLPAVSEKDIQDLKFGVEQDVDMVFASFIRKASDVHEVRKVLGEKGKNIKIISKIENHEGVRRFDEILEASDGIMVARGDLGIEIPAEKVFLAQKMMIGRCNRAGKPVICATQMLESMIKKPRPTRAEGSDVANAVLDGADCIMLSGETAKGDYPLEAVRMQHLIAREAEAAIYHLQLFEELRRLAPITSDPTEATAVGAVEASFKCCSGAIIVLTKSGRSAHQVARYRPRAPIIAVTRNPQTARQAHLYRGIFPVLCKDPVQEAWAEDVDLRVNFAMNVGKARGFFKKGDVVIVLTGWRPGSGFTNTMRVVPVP
# Pyruvate kinase PKM [2] = molecular target: T1, Pyruvate kinase PKM; assay: Inhibition of human PKM2 assessed as ATP production incubated for 10 mins by Celltiter-glo luminescent analysis
# Target sequence in this assay (P14618 whole entry): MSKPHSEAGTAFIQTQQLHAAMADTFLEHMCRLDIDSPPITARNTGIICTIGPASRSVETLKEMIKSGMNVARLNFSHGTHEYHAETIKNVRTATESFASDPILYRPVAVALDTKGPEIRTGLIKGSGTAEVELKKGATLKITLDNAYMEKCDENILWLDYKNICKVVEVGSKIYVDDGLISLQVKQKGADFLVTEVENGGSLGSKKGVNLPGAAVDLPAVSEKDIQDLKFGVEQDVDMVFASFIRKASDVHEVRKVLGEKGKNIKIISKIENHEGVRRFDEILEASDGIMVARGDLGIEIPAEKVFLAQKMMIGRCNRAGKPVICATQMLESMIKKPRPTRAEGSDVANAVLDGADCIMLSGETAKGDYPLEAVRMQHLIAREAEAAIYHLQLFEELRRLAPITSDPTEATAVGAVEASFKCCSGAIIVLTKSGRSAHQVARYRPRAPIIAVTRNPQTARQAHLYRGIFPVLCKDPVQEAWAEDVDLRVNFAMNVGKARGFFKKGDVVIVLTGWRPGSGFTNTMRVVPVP
# Pyruvate kinase PKM [3] = molecular target: T1, Pyruvate kinase PKM; assay: Inhibition of human PKM2 assessed as ATP production incubated for 10 mins in presence of beta-mercaptoethanol by Celltiter-glo luminescent analysis
# Target sequence in this assay (P14618 whole entry): as above
# Pyruvate kinase PKM [4] = molecular target: T1, Pyruvate kinase PKM; assay: Inhibition of human PKM1 assessed as ATP production incubated for 10 mins by Celltiter-glo luminescent analysis
# Target sequence in this assay (P14618 whole entry): as above
# PA-1 = assay: Antiproliferative activity against human PA-1 cells assessed as reduction in cell viability incubated for 72 hrs by Cell-TiterGlo assay; type: functional, cell-based; conditions: PA-1, 72 h
# A2780 = assay: Antiproliferative activity against human A2780 cells assessed as reduction in cell viability incubated for 72 hrs by Cell-TiterGlo assay; type: functional, cell-based; conditions: A2780, 72 h
# SK-OV-3 = assay: Antiproliferative activity against human SK-OV-3 cells assessed as reduction in cell viability incubated for 72 hrs by Cell-TiterGlo assay; type: functional, cell-based; conditions: SK-OV-3, 72 h
# Pyruvate kinase PKM [5] = molecular target: T1, Pyruvate kinase PKM; assay: Binding affinity to PKM2 in human PA-1 cells assessed as thermal stabilization at 2 uM measured for 6 hrs by cellular thermal shift assay; type: cell-based
# Target sequence in this assay (P14618 2-531 limits assumed): as the sequence (P14618 2-531 limits assumed) above
# Pyruvate kinase PKM [6] = molecular target: T1, Pyruvate kinase PKM; assay: Binding affinity to PKM2 in human SK-OV-3 cells assessed as thermal stabilization at 2 uM measured for 6 hrs by cellular thermal shift assay; type: cell-based
# Target sequence in this assay (P14618 2-531 limits assumed): as above
# Pyruvate kinase PKM [7] = molecular target: T1, Pyruvate kinase PKM; assay: Binding affinity to PKM2 in human PA-1 cells at 10 uM pretreated for 6 hrs followed by pulldown using streptavidin agarose resin by Western blot analysis; type: cell-based
# Target sequence in this assay (P14618 2-531 limits assumed): as above
# Pyruvate kinase PKM [8] = molecular target: T1, Pyruvate kinase PKM; assay: Binding affinity to PKM2 in human SK-OV-3 cells at 10 uM pretreated for 6 hrs followed by pulldown using streptavidin agarose resin by Western blot analysis; type: cell-based
# Target sequence in this assay (P14618 2-531 limits assumed): as above
# Pyruvate kinase PKM [9] = molecular target: T1, Pyruvate kinase PKM; assay: Binding affinity to wild type FLAG-tagged PKM2 in human PA-1 cells measured for 72 hrs; type: cell-based
# Target sequence in this assay (P14618 whole entry): as the sequence (P14618 whole entry) above
# Pyruvate kinase PKM [10] = molecular target: Pyruvate kinase PKM (Homo sapiens, UniProt P14618, C474A); assay: Binding affinity to PKM2 C474A mutant in human PA-1 cells measured for 72 hrs; type: cell-based
# Pyruvate kinase PKM [11] = molecular target: Pyruvate kinase PKM (Homo sapiens, UniProt P14618, C474S); assay: Binding affinity to PKM2 C474S mutant in human PA-1 cells measured for 72 hrs; type: cell-based
# Pyruvate kinase PKM [12] = molecular target: T1, Pyruvate kinase PKM; assay: Binding affinity to human PKM1 in HEK-293T by measuring pulldown using streptavidin agarose resin preincubated for 18 hrs followed by streptavidin pulldown for 18 hrs by silver staining based immunoblotting analysis; type: cell-based; conditions: time 36.0 hrs
# Target sequence in this assay (P14618 2-531 limits assumed): as the sequence (P14618 2-531 limits assumed) above
# Pyruvate kinase PKM [13] = molecular target: T1, Pyruvate kinase PKM; assay: Binding affinity to human PKM2 in HEK-293T by measuring pulldown using streptavidin agarose resin preincubated for 18 hrs followed by streptavidin pulldown for 18 hrs by silver staining based immunoblotting analysis; type: cell-based; conditions: time 36.0 hrs
# Sequence of Pyruvate kinase PKM (Homo sapiens, UniProt P14618, C474A) (P14618 2-531 C474A limits assumed): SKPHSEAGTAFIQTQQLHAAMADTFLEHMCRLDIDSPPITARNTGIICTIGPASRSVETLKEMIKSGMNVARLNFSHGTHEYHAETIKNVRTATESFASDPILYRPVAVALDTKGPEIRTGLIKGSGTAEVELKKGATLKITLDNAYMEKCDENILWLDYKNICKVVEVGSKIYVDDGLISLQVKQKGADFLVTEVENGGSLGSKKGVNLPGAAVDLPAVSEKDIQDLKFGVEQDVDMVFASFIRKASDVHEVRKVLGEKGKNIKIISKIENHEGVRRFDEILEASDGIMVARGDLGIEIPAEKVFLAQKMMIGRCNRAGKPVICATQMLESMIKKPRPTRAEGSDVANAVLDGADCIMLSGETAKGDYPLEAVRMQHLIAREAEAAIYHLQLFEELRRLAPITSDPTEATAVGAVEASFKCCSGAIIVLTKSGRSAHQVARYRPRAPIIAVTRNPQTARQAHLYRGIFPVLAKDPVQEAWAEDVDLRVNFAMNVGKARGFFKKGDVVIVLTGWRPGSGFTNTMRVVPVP
# Sequence of Pyruvate kinase PKM (Homo sapiens, UniProt P14618, C474S) (P14618 2-531 C474S limits assumed): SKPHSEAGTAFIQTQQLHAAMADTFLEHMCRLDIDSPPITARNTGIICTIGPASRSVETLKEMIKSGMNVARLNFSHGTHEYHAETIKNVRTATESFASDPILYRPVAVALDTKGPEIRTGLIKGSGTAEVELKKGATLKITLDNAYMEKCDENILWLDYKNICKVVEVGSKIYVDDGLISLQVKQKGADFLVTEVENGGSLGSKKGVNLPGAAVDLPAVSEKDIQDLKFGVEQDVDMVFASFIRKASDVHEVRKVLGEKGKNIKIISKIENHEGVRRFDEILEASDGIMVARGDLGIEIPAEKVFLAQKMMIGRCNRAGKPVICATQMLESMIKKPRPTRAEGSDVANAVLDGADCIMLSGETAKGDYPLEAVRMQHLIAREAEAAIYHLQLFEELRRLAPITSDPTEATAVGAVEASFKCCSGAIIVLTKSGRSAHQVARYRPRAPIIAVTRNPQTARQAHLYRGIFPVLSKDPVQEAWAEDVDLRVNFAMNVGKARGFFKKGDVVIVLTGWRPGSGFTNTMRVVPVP
Structure (SMILES),IC50 (Pyruvate kinase PKM [2]) [nM],IC50 (Pyruvate kinase PKM [3]) [nM],IC50 (PA-1) [nM],IC50 (A2780) [nM],IC50 (SK-OV-3) [nM],other results
CC1=CC(C)=[N+]2C1=C(CCCC(=O)N1CCC(CN(C(=O)[C@@H]3CCN(Cc4ccccc4)C3)c3ccc([As]4SCCS4)cc3)CC1)c1c(C)cc(C)n1[B-]2(F)F,–,–,–,–,–,Activity (Pyruvate kinase PKM [1]): Active
O=C(CCCC[C@H]1SC[C@H]2NC(=O)N[C@H]21)NCCOCCOCCOCCOCC(=O)Nc1ccc(B(O)O)cc1,> 10000,> 10000,–,–,–,–
CC(C)=CC[C@@H](O)C1=CC(=O)c2c(O)ccc(O)c2C1=O [SHIKONIN],2580,> 10000,920,390,3460,IC50 (Pyruvate kinase PKM [4]): 1520 nM; Activity (Pyruvate kinase PKM [5]): inactive; Activity (Pyruvate kinase PKM [6]): inactive; Activity (Pyruvate kinase PKM [7]): Active; Activity (Pyruvate kinase PKM [8]): Active; IC50 (Pyruvate kinase PKM [9]): 301 nM; IC50 (Pyruvate kinase PKM [10]): 381 nM; IC50 (Pyruvate kinase PKM [11]): 326 nM
CN1CC[C@@H](C(=O)N(Cc2ccccc2)c2ccc([As](O)O)cc2)C1,285,1790,–,–,–,–
O=C(CCCC[C@H]1SC[C@H]2NC(=O)N[C@H]21)NCCOCCOCCOCCN1CCC(CN(C(=O)[C@@H]2CCN(Cc3ccccc3)C2)c2ccc([As](O)O)cc2)CC1,–,–,–,–,–,Activity (Pyruvate kinase PKM [12]): inactive; Activity (Pyruvate kinase PKM [13]): Active
CCN1CCC(CN(C(=O)[C@H]2CCN(Cc3ccccc3)C2)c2ccc([As]3SCCS3)cc2)CC1,–,–,100,110,130,–
CCN1CCC(CN(C(=O)[C@@H]2CCN(Cc3ccccc3)C2)c2ccc(B(O)O)cc2)CC1,> 10000,> 10000,> 10000,> 10000,> 10000,–
COc1ccc([As](O)O)cc1NC(=O)COCCOCCOCCOCCNC(=O)CCCC[C@H]1SC[C@H]2NC(=O)N[C@H]21,999,1280,–,–,–,–
